Tests used:
Cholinesterase = Cholinesterase (Homo sapiens, UniProt P06276)
Description: Inhibition of Butyrylcholinesterase (BChE) of human erythrocytes [-log IC50 (uM)]

Acetylcholinesterase [1] = target: T1, Acetylcholinesterase (Homo sapiens, UniProt P22303)
Description: Inhibition of acetylcholinesterase (AChE) of human erythrocytes

Acetylcholinesterase [2] = target: T1, Acetylcholinesterase; remark: listed apart in the source
Description: Inhibition constant determined against Acetylcholinesterase (AChE) receptor.

Chain of Cholinesterase (P06276 whole entry): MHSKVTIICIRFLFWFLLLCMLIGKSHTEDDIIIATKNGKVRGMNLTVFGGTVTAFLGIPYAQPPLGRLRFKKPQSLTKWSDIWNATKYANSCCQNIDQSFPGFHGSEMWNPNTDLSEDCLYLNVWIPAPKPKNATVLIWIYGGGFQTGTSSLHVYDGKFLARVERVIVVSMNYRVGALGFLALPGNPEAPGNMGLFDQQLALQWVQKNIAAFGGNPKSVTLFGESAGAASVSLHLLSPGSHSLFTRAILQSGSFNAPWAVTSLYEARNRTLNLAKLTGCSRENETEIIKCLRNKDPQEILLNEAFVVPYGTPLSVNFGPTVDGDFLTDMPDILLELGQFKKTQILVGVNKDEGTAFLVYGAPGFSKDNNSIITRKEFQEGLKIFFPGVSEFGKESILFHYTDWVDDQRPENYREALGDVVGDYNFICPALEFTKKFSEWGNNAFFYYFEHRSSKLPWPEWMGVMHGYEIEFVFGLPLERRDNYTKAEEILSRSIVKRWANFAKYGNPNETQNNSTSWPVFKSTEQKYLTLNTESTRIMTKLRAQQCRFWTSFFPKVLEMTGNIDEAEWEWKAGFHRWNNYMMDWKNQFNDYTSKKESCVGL
T1 sequence (P22303 whole entry): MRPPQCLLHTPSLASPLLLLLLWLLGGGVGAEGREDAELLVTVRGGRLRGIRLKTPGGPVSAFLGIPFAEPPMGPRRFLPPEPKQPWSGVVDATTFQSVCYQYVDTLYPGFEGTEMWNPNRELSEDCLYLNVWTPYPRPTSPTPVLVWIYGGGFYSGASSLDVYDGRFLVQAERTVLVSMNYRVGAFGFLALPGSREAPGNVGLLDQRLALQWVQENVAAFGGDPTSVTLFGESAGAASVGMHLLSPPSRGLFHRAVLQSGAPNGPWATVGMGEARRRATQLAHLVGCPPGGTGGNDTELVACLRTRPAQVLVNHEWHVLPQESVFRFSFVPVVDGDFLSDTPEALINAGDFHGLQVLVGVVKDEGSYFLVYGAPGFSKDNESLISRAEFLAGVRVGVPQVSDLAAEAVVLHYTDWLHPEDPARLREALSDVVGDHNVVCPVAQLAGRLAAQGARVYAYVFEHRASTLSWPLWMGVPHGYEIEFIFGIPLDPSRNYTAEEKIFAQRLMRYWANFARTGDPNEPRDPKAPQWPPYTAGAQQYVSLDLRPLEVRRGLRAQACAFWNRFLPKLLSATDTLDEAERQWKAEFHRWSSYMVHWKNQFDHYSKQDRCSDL

Compound | IC50 (Cholinesterase) [µM] | IC50 (Acetylcholinesterase [1]) [µM] | Ki (Acetylcholinesterase [2]) [µM]
COc1ccccc1CNCCCCCCNCCCCCCCNCCCCCCNCc1ccccc1OC | 3.72 |  | 
COc1ccccc1CNCCCCCCNCCCCCCNCCCCCCNCc1ccccc1OC | 1.38 | 6.46 | 
COc1ccccc1CNCCCCCCNCCSSCCNCCCCCCNCc1ccccc1OC [BENEXTRAMINE] | 6.17 | 7.24 | 
COc1ccccc1CN(C)CCCCCC(=O)N(C)CCCCCCCCN(C)C(=O)CCCCCN(C)Cc1ccccc1OC [CAPROCTAMINE] | 11.7 | 0.17 | 0.000104
COc1ccccc1CNCCCCCCNCCCCCNCCCCCCNCc1ccccc1OC | 8.71 | 7.24 | 
COc1ccccc1CNCCCCCC(=O)NCCCCCCCCNC(=O)CCCCCNCc1ccccc1OC | 11.5 | 1.86 | 
COc1ccccc1CNCCCCCCNCCCCCCCCNCCCCCCNCc1ccccc1OC [METHOCTRAMINE] | 0.977 |  | 
NCCCCCCNCCSSCCNCCCCCCN | 646 | 501 | 
COc1ccccc1CNCCCCCC(=O)N(C)CCCCCCCCN(C)C(=O)CCCCCNCc1ccccc1OC | 6.03 | 0.309 | 
